Reference: patent US9505781B2, “Compositions comprising thienopyrimidine and thienopyridine compounds and methods of use thereof” (The Regents of the University of Michigan, priority 2013, dated 2016)
pIC50: −log10 of the molar value.

What follows are compounds tested against T1, menin-MLL interaction (Homo sapiens, UniProt O00255) (assay: biochemical).
T1 sequence (O00255 1-610): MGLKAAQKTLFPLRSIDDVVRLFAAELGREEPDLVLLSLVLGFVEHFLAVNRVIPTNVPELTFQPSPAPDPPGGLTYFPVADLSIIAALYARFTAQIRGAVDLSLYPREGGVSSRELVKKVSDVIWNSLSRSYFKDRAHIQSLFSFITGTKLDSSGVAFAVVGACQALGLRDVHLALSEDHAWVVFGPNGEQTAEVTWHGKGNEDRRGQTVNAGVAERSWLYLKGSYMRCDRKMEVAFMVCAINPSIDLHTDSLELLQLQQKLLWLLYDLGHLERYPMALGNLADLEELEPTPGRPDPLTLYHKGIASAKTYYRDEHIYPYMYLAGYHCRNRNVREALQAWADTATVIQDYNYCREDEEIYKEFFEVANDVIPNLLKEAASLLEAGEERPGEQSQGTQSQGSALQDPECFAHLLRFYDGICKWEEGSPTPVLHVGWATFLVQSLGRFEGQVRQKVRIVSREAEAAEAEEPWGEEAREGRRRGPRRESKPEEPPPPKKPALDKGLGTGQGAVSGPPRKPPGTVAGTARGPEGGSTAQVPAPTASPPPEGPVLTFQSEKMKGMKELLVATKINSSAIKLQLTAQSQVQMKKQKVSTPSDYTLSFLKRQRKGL
Excerpt: Compounds that inhibit the interaction decrease the fluorescence anisotropy which is being used as a read-out for compound screening and for IC50 determination.
`FC(F)(F)Cc1cc2c(NC3CCN(Cc4cccs4)CC3)ncnc2s1` [Compound 132] was tested, and the pIC50 was 6.30 to 7.00. `N#Cc1cc2cc(CN3CCC(Nc4ncnc5sc(CC(F)(F)F)cc45)CC3)ccc2n1Cc1cc[nH]n1` [Compound 199] showed a pIC50 greater than 7.00. `CCc1c(CN2CCC(Nc3ncnc4sc(CC(F)(F)F)cc34)CC2)ccc2[nH]c(C#N)cc12` [Compound 295] showed a pIC50 greater than 7.00. `N#Cc1cc2c(CO)c(CN3CCC(Nc4ncnc5sc(CC(F)(F)F)cc45)CC3)ccc2n1Cc1cn[nH]c1` [Compound 335] showed a pIC50 greater than 7.00. With `NS(=O)(=O)c1ccc(CN2CCC(CNc3ncnc4sc(CC(F)(F)F)cc34)CC2)cc1` [Compound 262] the pIC50 was 6.30 to 7.00. Work on `Cc1c(CN2CCC(Nc3ncnc4sc(CC(F)(F)F)cc34)CC2)ccc2c1cc(C#N)n2Cc1cnc[nH]1` [Compound 349] yielded a pIC50 greater than 7.00. `COCCOCCn1cc(Cn2c(C#N)cc3c(C)c(CN4CCC(Nc5ncnc6sc(CC(F)(F)F)cc56)CC4)ccc32)cn1` [Compound 313] showed a pIC50 greater than 7.00. `FC(F)(F)Cc1cc2c(NC3CCN(Cc4cc[nH]c4)CC3)ncnc2s1` [Compound 134] showed a pIC50 of 6.30 to 7.00. `FC(F)(F)c1nnc(N2CCN(c3ncnc4sc(C(F)(F)C(F)(F)F)cc34)CC2)s1` [Compound 24] gave a pIC50 of 5.70 to 6.30. Work on `FC(F)(F)Cc1cc2c(N3CCN(c4nnc(CC(F)(F)F)s4)CC3)ncnc2s1` [Compound 8] yielded a pIC50 of 6.30 to 7.00. `FC(F)(F)Cc1cc2c(N[C@H]3CCN(Cc4ccccc4)C[C@@H]3NCc3ccccc3)ncnc2s1` [Compound 167] was tested, and the pIC50 was 6.30 to 7.00. `Cc1c(CN2CCC(Nc3ncnc4sc(CC(F)(F)F)cc34)CC2)c(O)cc2c1cc(C#N)n2Cc1cn[nH]c1` [Compound 388] gave a pIC50 greater than 7.00. Work on `O=C(Cc1ccc(NS(=O)(=O)N2CCOCC2)cc1)N1CCN(c2ncnc3sc(CC(F)(F)F)cc23)CC1` [Compound 53] yielded a pIC50 greater than 7.00. For `N#Cc1cc2c(Cl)c(CN3CCC(Nc4ncnc5sc(CC(F)(F)F)cc45)CC3)ccc2n1CC(N)=O` [Compound 225], the pIC50 was greater than 7.00. With `CC1(C)CN=C(N2CCN(c3ncnc4sc(CCCCc5ccccc5)cc34)CC2)S1` [Compound 40] the pIC50 was 5.70 to 6.30. `COc1cc2[nH]c(C#N)cc2cc1CN1CCC(Nc2ncnc3sc(CC(F)(F)F)cc23)CC1` [Compound 181, 6-methoxy-5-((4-((6-(2,2,2-trifluoroethyl)thieno[2,3-d]pyrimidin-4-yl)amino)piperidin-1-yl)methyl)-1H-indole-2-carbonitrile] gave a pIC50 greater than 7.00. In the case of `Cc1c(CN2CCC(Nc3ncnc4sc(CC(F)(F)F)cc34)CC2)ccc2c1cc(C#N)n2CC1CCC(=O)N1` (stereo not drawn) [Compound 427], the pIC50 was greater than 7.00. `Cc1c(CN2CCC(Nc3ncnc4sc(CC(F)(F)F)cc34)CC2)ccc2c1cc(C#N)n2CCN1CCN(C(=O)CCc2ccccc2)CC1` [Compound 341] was tested, and the pIC50 was greater than 7.00. `N#Cc1cc2c(Cl)c(CN3CCC(Nc4ncnc5sc(CC(F)(F)F)cc45)CC3)ccc2n1Cc1cn[nH]c1` [Compound 381] was tested, and the pIC50 was greater than 7.00. For `N#CCc1ccc2[nH]cc(CN3CCC(Nc4ncnc5sc(CC(F)(F)F)cc45)CC3)c2c1` [Compound 252], the pIC50 was 5.70 to 6.30. For `N#Cc1cc2cc(CN3CCC(Nc4ncnc5sc(CC(F)(F)F)cc45)CC3)cc(F)c2n1CC(N)=O` [Compound 246], the pIC50 was 6.30 to 7.00. With `OCCC(F)(F)Cc1cc2c(NC3CCN(Cc4ccccc4)CC3)ncnc2s1` [Compound 138] the pIC50 was 5.70 to 6.30. Compound `N#Cc1cc2cc(CN3CCC(Nc4ncnc5sc(CC(F)(F)F)cc45)C(N)C3)ccc2[nH]1` (stereo not drawn) [Compound 160] has a pIC50 greater than 7.00. `Nc1ccc(CN2CCC(Nc3ncnc4sc(CC(F)(F)F)cc34)CC2)cc1` [Compound 139] was tested, and the pIC50 was 5.70 to 6.30. `Cc1ccc(CN2CCC(Nc3ncnc4sc(CC(F)(F)F)cc34)CC2)cc1` [Compound 147] was tested, and the pIC50 was 5.70 to 6.30. For `COCCOCCOC(CO)Cn1c(C#N)cc2cc(CN3CCC(Nc4ncnc5sc(CC(F)(F)F)cc45)CC3)ccc21` (stereo not drawn) [Compound 319], the pIC50 was greater than 7.00. `CCOc1cc2c(cc1CN1CCC(Nc3ncnc4sc(CC(F)(F)F)cc34)CC1)cc(C#N)n2C[C@H](O)CO` [Compound 217] showed a pIC50 greater than 7.00. With `N#Cc1cc2c(Cl)c(CN3CCC(Nc4ncnc5sc(CC(F)(F)F)cc45)CC3)ccc2n1C[C@H](O)CO` [Compound 226] the pIC50 was greater than 7.00. In the case of `CC(C)N(c1ccc(CC(=O)N2CCN(c3ncnc4sc(CC(F)(F)F)cc34)CC2)cc1)S(C)(=O)=O` [Compound 103], the pIC50 was 5.70 to 6.30. `FC(F)(F)Cc1cc2c(N3CCN(c4nnc(CC5CCCCC5)s4)CC3)ncnc2s1` [Compound 39] gave a pIC50 of 5.70 to 6.30. Compound `FC(F)(F)Cc1cc2c(NCC3CCN(Cc4ccc(N5CCOCC5)cc4Cl)CC3)ncnc2s1` [Compound 259] has a pIC50 of 6.30 to 7.00. Work on `Cc1c(CN2CCC(Nc3ncnc4sc(CC(F)(F)F)cc34)CC2)ccc2c1cc(C#N)n2CCN1CCNC(=O)C1` [Compound 355] yielded a pIC50 greater than 7.00. For `Cc1c(CN2CCC(Nc3ncnc4sc(CC(F)(F)F)cc34)CC2)ccc2c1cc(C#N)n2CCN1CCN[C@@H](C)C1` [Compound 367], the pIC50 was greater than 7.00. Work on `Cc1nc(Cn2c(C#N)cc3cc(CN4CCC(Nc5ncnc6sc(CC(F)(F)F)cc56)CC4)ccc32)cs1` [Compound 201] yielded a pIC50 greater than 7.00. With `FC(F)(F)Cc1cc2c(N[C@H]3CCN(Cc4ccccc4)C[C@@H]3OCc3ccccc3)ccnc2s1` [Compound 174] the pIC50 was 6.30 to 7.00. `N#Cc1cc2cc(CN3CCC(Nc4ncnc5sc(CC(F)(F)F)cc45)CC3)ccc2n1CC1CC1` [Compound 178] showed a pIC50 greater than 7.00. In the case of `OCc1ccc(CN2CCC(Nc3ncnc4sc(CC(F)(F)F)cc34)CC2)cc1` [Compound 140], the pIC50 was 5.70 to 6.30. `FC(F)(F)CCc1nnc(N2CCN(c3ncnc4sc(CC(F)(F)F)cc34)CC2)s1` [Compound 18] gave a pIC50 of 5.70 to 6.30. For `N#CCc1ccc(CC(=O)N2CCN(c3ncnc4sc(CC(F)(F)F)cc34)CC2)cc1` [Compound 77], the pIC50 was 6.30 to 7.00. `Cc1c(CN2CCC(Nc3ncnc4sc(CC(F)(F)F)cc34)CC2)ccc2c1cc(C#N)n2CCN1CCCCC1` [Compound 329] gave a pIC50 greater than 7.00. With `Cc1c(CN2CCC(Nc3ncnc4sc(CC(F)(F)F)cc34)CC2)ccc2c1cc(C#N)n2CCN1CCS(=O)(=O)CC1` [Compound 368] the pIC50 was greater than 7.00. `Cc1c(CN2CCC(Nc3ncnc4sc(CC(F)(F)F)cc34)CC2)ccc2c1cc(C#N)n2Cc1cn[nH]c1` [Compound 309, 1-((1H-pyrazol-4-yl)methyl)-4-methyl-5-((4-((6-(2,2,2-trifluoroethyl)thieno[2,3-d]pyrimidin-4-yl)amino)piperidin-1-yl)methyl)-1H-indole-2-carbonitrile] gave a pIC50 greater than 7.00. `CCN(c1ccc(CC(=O)N2CCN(C3=NC=NC4SC(CC(F)(F)F)=CC34)CC2)c(Cl)c1)S(C)(=O)=O` (stereo not drawn) [Compound 66] was tested, and the pIC50 was greater than 7.00. `Cc1c(CN2CCC(Nc3ncnc4sc(CC(F)(F)F)cc34)CC2)ccc2c1cc(C#N)n2Cc1ncco1` [Compound 353] showed a pIC50 greater than 7.00. Compound `CS(=O)(=O)N1CCC[C@H]1CN[C@H]1CN(Cc2ccccc2)CC[C@@H]1Nc1ncnc2sc(CC(F)(F)F)cc12` [Compound 172] has a pIC50 of 6.30 to 7.00. For `N#Cc1cc2cc(CN3CCC(Nc4ncnc5sc(CC(F)(F)F)cc45)CC3)ccc2n1CCN1CCNCC1` [Compound 393], the pIC50 was greater than 7.00. `N#Cc1cc2cc(CN3CC[C@@H](Nc4ncnc5sc(CC(F)(F)F)cc45)[C@@H](CO)C3)ccc2[nH]1` [Compound 164] gave a pIC50 greater than 7.00. `Cc1c(CN2CCC(Nc3ncnc4sc(CC(F)(F)F)cc34)CC2)ccc2c1cc(C#N)n2CCN1CCN(CC(N)=O)CC1` [Compound 364] showed a pIC50 greater than 7.00. `CS(=O)(=O)Cc1ccc(CC(=O)N2CCN(c3ncnc4sc(CC(F)(F)F)cc34)CC2)cc1` [Compound 43] showed a pIC50 greater than 7.00. In the case of `Cc1c(CN2CCC(Nc3ncnc4sc(CC(F)(F)F)cc34)CC2)ccc2c1cc(C#N)n2CCn1cncn1` [Compound 304], the pIC50 was greater than 7.00. Work on `COc1cc2[nH]c(C#N)cc2c(C)c1CN1CCC(Nc2ncnc3sc(CC(F)(F)F)cc23)CC1` [Compound 383] yielded a pIC50 greater than 7.00. With `Cc1c(CN2CCC(Nc3ncnc4sc(CC(F)(F)F)cc34)CC2)ccc2c1cc(C#N)n2Cc1cc(O)n[nH]1` [Compound 331] the pIC50 was greater than 7.00. With `O=C(N1CCCC1)N1CCN(c2ncnc3sc(CC(F)(F)F)cc23)CC1` [Compound 86] the pIC50 was 5.70 to 6.30. `CCCc1cc2c(NC3CCN(Cc4ccccc4Br)CC3)ncnc2s1` [Compound 152] showed a pIC50 of 5.70 to 6.30. `COc1ccc(CC(=O)N2CCN(c3ncnc4sc(CC(F)(F)F)cc34)CC2)cc1` [Compound 74] was tested, and the pIC50 was 6.30 to 7.00. `N#Cc1cc2cc(CN3CCC(Nc4ncnc5sc(CC(F)(F)F)cc45)CC3)ccc2n1CC(O)(CO)COCCC1CCCCC1` (stereo not drawn) [Compound 413] gave a pIC50 of 6.30 to 7.00. Compound `Cc1c(CN2CCC(Nc3ncnc4sc(CC(F)(F)F)cc34)CC2)ccc2c1cc(C#N)n2Cc1nccs1` [Compound 326] has a pIC50 greater than 7.00. For `CCCCc1cc2c(N3CCN(c4nnc(C(F)(F)F)s4)CC3)ncnc2s1` [Compound 34], the pIC50 was 5.70 to 6.30. For `O=C(Cc1ccc(CS(=O)(=O)C(F)(F)F)cc1)N1CCN(c2ncnc3sc(CC(F)(F)F)cc23)CC1` [Compound 79], the pIC50 was 6.30 to 7.00. In the case of `N#Cc1cc2cc(CN3CCC(Nc4c(COCCC5CCCC5)cnc5sc(CC(F)(F)F)cc45)CC3)ccc2[nH]1` [Compound 418], the pIC50 was 5.70 to 6.30. Work on `N#Cc1[nH]c2ccc(CN3CCC(Nc4ncnc5sc(CC(F)(F)F)cc45)CC3)cc2c1F` [Compound 176] yielded a pIC50 greater than 7.00. In the case of `FC(F)(F)Cc1cc2c(NCC3CCN(Cc4ccc(N5CCCCC5)cc4)CC3)ncnc2s1` [Compound 255], the pIC50 was 6.30 to 7.00. In the case of `Cc1c(CN2CC[C@@H](Nc3ncnc4sc(CC(F)(F)F)cc34)[C@H](NCCc3ccccc3)C2)ccc2c1cc(C#N)n2CC(N)=O` [Compound 288], the pIC50 was greater than 7.00.
